# Data taken from article PMC6001238, “Iterative Chemical Engineering of Vancomycin Leads to Novel Vancomycin Analogs With a High in Vitro Therapeutic Index” (Frontiers in Microbiology, 2018).
# What was measured:
# [1] = test system: S. aureus VSSA (ATCC 6538); test: MIC, broth microdilution, vancomycin-sensitive S. aureus (VSSA/MSSA, ATCC 6538); assay type: cell-based, Staphylococcus aureus; conditions: for MIC: Staphylococcus aureus VSSA, read-out: MIC; for MIC-fold improvement vs. vancomycin: VSSA, ratio of MIC of vancomycin and MIC of analogue
# Summary of the method: (§1)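 Susceptibility was scored by broth microdilution (CLSI). In one instance each vancomycin analog or control antibiotic was tested in the presence of vancomycin, 10 μM final, and ultrapure water plus non-inoculated broth were included as controls.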
# MRSA KS1 = test: MIC, broth microdilution, MRSA KS1; assay type: cell-based, Staphylococcus aureus; conditions: for MIC-fold improvement vs. vancomycin: MRSA KS1, ratio of MIC of vancomycin and MIC of analogue; for MIC: Staphylococcus aureus MRSA KS1, read-out: MIC
# Summary of the method: as §1
# E. faecalis VRE 29 = test: MIC, broth microdilution, vancomycin-resistant E. faecalis VRE 29 (VanA); assay type: cell-based, Enterococcus faecalis; conditions: for MIC: Enterococcus faecalis VRE 29 (vancomycin-resistant), read-out: MIC; for MIC-fold improvement vs. vancomycin: VRE 29, ratio of MIC of vancomycin and MIC of analogue
# Summary of the method: as §1
# MRSA KS2 = test: MIC, broth microdilution, MRSA KS2; assay type: cell-based, Staphylococcus aureus; conditions: for MIC-fold improvement vs. vancomycin: MRSA KS2, ratio of MIC of vancomycin and MIC of analogue; for MIC: Staphylococcus aureus MRSA KS2, read-out: MIC
# Summary of the method: as §1
# E. faecalis VRE 37 = test: MIC, broth microdilution, vancomycin-resistant E. faecalis VRE 37 (VanA); assay type: cell-based, Enterococcus faecalis; conditions: for MIC: Enterococcus faecalis VRE 37 (vancomycin-resistant), read-out: MIC; for MIC-fold improvement vs. vancomycin: VRE 37, ratio of MIC of vancomycin and MIC of analogue
# Summary of the method: as §1
# [2] = test system: human T-lymphocyte (CEM) cells; test: Cytostatic activity, CEM cell proliferation; assay type: cell-based; conditions: mean ± SD of three experiments; highest concentration tested 250 µM; 3 days; read-out: Toxicity (IC50) CEM
# Summary of the method: (§2)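 Suspensions (300,000–500,000 cells/mL) combined with equal volumes of diluted compound; 37°C; L1210 2 d / CEM 3 d / HeLa 4 d; counted by Coulter counter; IC50 vs untreated wells.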
# [3] = test system: Murine leukemia (L1210) cells; test: Cytostatic activity, L1210 cell proliferation; assay type: cell-based; conditions: mean ± SD of three experiments; highest concentration tested 250 µM; 2 days; read-out: Toxicity (IC50) L1210
# Summary of the method: as §2
# S. aureus VISA/HIP5827 = test: MIC, broth microdilution, vancomycin-intermediate S. aureus VISA HIP5827; assay type: cell-based, Staphylococcus aureus; conditions: for MIC: Staphylococcus aureus VISA/HIP5827, read-out: MIC; for MIC-fold improvement vs. vancomycin: VISA/HIP5827, ratio of MIC of vancomycin and MIC of analogue
# Summary of the method: as §1
# MRSA KS6 = test: MIC, broth microdilution, MRSA KS6; assay type: cell-based, Staphylococcus aureus; conditions: for MIC-fold improvement vs. vancomycin: MRSA KS6, ratio of MIC of vancomycin and MIC of analogue; for MIC: Staphylococcus aureus MRSA KS6, read-out: MIC
# Summary of the method: as §1
# [4] = test system: human cervix carcinoma (HeLa) cells; test: Cytostatic activity, HeLa cell proliferation; assay type: cell-based; conditions: mean ± SD of three experiments; highest concentration tested 250 µM; 4 days; read-out: Toxicity (IC50) HeLa
# Summary of the method: as §2
# E. faecalis VRE 6 = test: MIC, broth microdilution, vancomycin-resistant E. faecalis VRE 6 (VanA); assay type: cell-based, Enterococcus faecalis; conditions: for MIC: Enterococcus faecalis VRE 6 (vancomycin-resistant), read-out: MIC; for MIC-fold improvement vs. vancomycin: VRE 6, ratio of MIC of vancomycin and MIC of analogue
# Summary of the method: as §1
# S. aureus VRSA = test: MIC, broth microdilution, vancomycin-resistant S. aureus (VRSA); assay type: cell-based, Staphylococcus aureus; conditions: for MIC: Staphylococcus aureus VRSA, read-out: MIC; for MIC-fold improvement vs. vancomycin: VRSA, ratio of MIC of vancomycin and MIC of analogue
# Summary of the method: as §1
# E. faecalis VSE 1 = test: MIC, broth microdilution, vancomycin-sensitive E. faecalis (VSE 1); assay type: cell-based, Enterococcus faecalis; conditions: for MIC: Enterococcus faecalis VSE 1 (vancomycin-sensitive), read-out: MIC; for MIC-fold improvement vs. vancomycin: VSE 1, ratio of MIC of vancomycin and MIC of analogue
# Summary of the method: as §1
# [5] = test system: L1210, CEM and HeLa cell lines; test: Cytostatic activity, average or summary over L1210, CEM and HeLa; assay type: cell-based; conditions: average of L1210, CEM and HeLa; read-out: Toxicity (IC50) Average
# Summary of the method: as §2
# E. faecalis VRE 53 = test: MIC, broth microdilution, vancomycin-resistant E. faecalis VRE 53 (VanA); assay type: cell-based, Enterococcus faecalis; conditions: for MIC: Enterococcus faecalis VRE 53 (vancomycin-resistant), read-out: MIC; for MIC-fold improvement vs. vancomycin: VRE 53, ratio of MIC of vancomycin and MIC of analogue
# Summary of the method: as §1
# MRSA KS89 = test: MIC, broth microdilution, MRSA KS89; assay type: cell-based, Staphylococcus aureus; conditions: for MIC-fold improvement vs. vancomycin: MRSA KS8, ratio of MIC of vancomycin and MIC of analogue; for MIC: Staphylococcus aureus MRSA KS8, read-out: MIC
# Summary of the method: as §1
SMILES,MIC [1] [µM],MIC-fold improvement vs. vancomycin [1],MIC-fold improvement vs. vancomycin (MRSA KS1),MIC (MRSA KS1) [µM],MIC (E. faecalis VRE 29) [µM],MIC-fold improvement vs. vancomycin (E. faecalis VRE 29),MIC-fold improvement vs. vancomycin (MRSA KS2),MIC (MRSA KS2) [µM],MIC (E. faecalis VRE 37) [µM],IC50 [2] [µM],IC50 [3] [µM],MIC (S. aureus VISA/HIP5827) [µM],MIC-fold improvement vs. vancomycin (S. aureus VISA/HIP5827),MIC-fold improvement vs. vancomycin (MRSA KS6),MIC (MRSA KS6) [µM],IC50 [4] [µM],MIC (E. faecalis VRE 6) [µM],MIC-fold improvement vs. vancomycin (E. faecalis VRE 6),MIC (S. aureus VRSA) [µM],MIC-fold improvement vs. vancomycin (S. aureus VRSA),also measured
CCCCC#Cc1ccc(NC(=O)CNC(=O)[C@H]2NC(=O)[C@H]3NC(=O)[C@H](NC(=O)[C@@H]4NC(=O)[C@H](CC(N)=O)NC(=O)[C@H](NC(=O)[C@@H](CC(C)C)NC)[C@H](O)c5ccc(c(Cl)c5)Oc5cc4cc(c5O[C@@H]4O[C@H](CO)[C@@H](O)[C@H](O)[C@H]4O[C@H]4C[C@](C)(N)[C@H](O)[C@H](C)O4)Oc4ccc(cc4Cl)[C@H]3O)c3ccc(O)c(c3)-c3c(O)cc(O)cc32)cc1 [Vanc-37],0.10,8,4,0.20,6.25,64,4,0.20,1.56,24 ± 4,14 ± 7,0.10,64,8,0.10,118 ± 10,1.56,128,1.56,64,MIC-fold improvement vs. vancomycin (E. faecalis VRE 37): 256; MIC (E. faecalis VSE 1): 0.20 µM; MIC-fold improvement vs. vancomycin (E. faecalis VSE 1): 8; IC50 [5]: 52 µM; MIC (E. faecalis VRE 53): 3.13 µM; MIC-fold improvement vs. vancomycin (E. faecalis VRE 53): 128; MIC-fold improvement vs. vancomycin (MRSA KS89): 4; MIC (MRSA KS89): 0.20 µM
CN[C@H](CC(C)C)C(=O)N[C@H]1C(=O)N[C@@H](CC(N)=O)C(=O)N[C@H]2C(=O)N[C@H]3C(=O)N[C@H](C(=O)N[C@H](C(=O)NCC(=O)Nc4ccc(C#Cc5ccccc5)cc4)c4cc(O)cc(O)c4-c4cc3ccc4O)[C@H](O)c3ccc(c(Cl)c3)Oc3cc2cc(c3O[C@@H]2O[C@H](CO)[C@@H](O)[C@H](O)[C@H]2O[C@H]2C[C@](C)(N)[C@H](O)[C@H](C)O2)Oc2ccc(cc2Cl)[C@H]1O [Vanc-38],0.05,16,4,0.20,1.56,256,4,0.20,3.13,4.4 ± 0.5,8 ± 3.1,0.05,128,4,0.20,24 ± 1,0.39,513,0.78,128,MIC-fold improvement vs. vancomycin (E. faecalis VRE 37): 128; MIC (E. faecalis VSE 1): 0.20 µM; MIC-fold improvement vs. vancomycin (E. faecalis VSE 1): 8; IC50 [5]: 12 µM; MIC (E. faecalis VRE 53): 3.13 µM; MIC-fold improvement vs. vancomycin (E. faecalis VRE 53): 128; MIC-fold improvement vs. vancomycin (MRSA KS89): 4; MIC (MRSA KS89): 0.20 µM
CN[C@H](CC(C)C)C(=O)N[C@H]1C(=O)N[C@@H](CC(N)=O)C(=O)N[C@H]2C(=O)N[C@H]3C(=O)N[C@H](C(=O)N[C@H](C(=O)NCC(=O)Nc4ccc(C(F)(F)F)cc4)c4cc(O)cc(O)c4-c4cc3ccc4O)[C@H](O)c3ccc(c(Cl)c3)Oc3cc2cc(c3O[C@@H]2O[C@H](CO)[C@@H](O)[C@H](O)[C@H]2O[C@H]2C[C@](C)(N)[C@H](O)[C@H](C)O2)Oc2ccc(cc2Cl)[C@H]1O [Vanc-40],0.78,1,2,0.39,12.5,32,2,0.39,12.5,> 250,> 250,1.56,4,2,0.39,> 250,6.25,32,3.13,32,MIC (E. faecalis VSE 1): 0.78 µM; MIC-fold improvement vs. vancomycin (E. faecalis VSE 1): 2; IC50 [5]: > 250 µM; MIC (E. faecalis VRE 53): 25 µM; MIC-fold improvement vs. vancomycin (E. faecalis VRE 53): 16; MIC-fold improvement vs. vancomycin (MRSA KS89): 2; MIC (MRSA KS89): 0.39 µM
